Results from patent publication US7994365B2, “Basic acetophenones as inhibitors of NO-synthases” (Christian-Albrechts-Universitaet Zu Kiel, priority 2006, dated 2011).
Counter-ions that a name gives are not always drawn.

Molecular target: T1, bNOS (Homo sapiens, UniProt P29475)
T1 construct: purchased Axxora GmbH
Test: Griess assay: NO-synthase converts L-arginine to L-citrullin and NO, activity measured by nitrite formation
Assay type: biochemical
Conditions: maximum inhibition reached; recombinant human isoenzyme, 30 min at 37° C., controls without inhibitor = 100%
Method: Although the compound is known from the literature Niwa, H., 1957, Tohoku Yakka Daigaku, 4, 69-78), as yet no NOS-inhibiting action has been described.
In both FIGS. 1 and 2 the bNOS activity is measured by means of nitrite formation. Nitrite is the end product of nitrogen monoxide in oxygen-containing, aqueous solution. Control incubations with all the cofactors, but without inhibitor addition, were 100% established. These are mean values +/− standard deviation of three incubations, in each case measured twice.
The incubations of the synthesized substances with the NO-synthases were carried out as follows: […]
Following preparation, the batches were incubated for 20 min (iNOS and eNOS) or 30 min (bNOS) in the shaking water bath at 37° C. […] After incubating for […] at room temperature, the solutions were measured at a wavelength of 543 nm and the indicated non-enzyme-containing sample was used as the blank reading. […] The nitrite can be quantitatively determined by reaction with sulphanilamide and naphthyl ethylene diamine in an acid medium. This leads to an azo dye, which can be measured spectrophotometrically. […] The relative nitrite formations were determined for the control batches containing no inhibitors. […]

T1 sequence (P29475 whole entry): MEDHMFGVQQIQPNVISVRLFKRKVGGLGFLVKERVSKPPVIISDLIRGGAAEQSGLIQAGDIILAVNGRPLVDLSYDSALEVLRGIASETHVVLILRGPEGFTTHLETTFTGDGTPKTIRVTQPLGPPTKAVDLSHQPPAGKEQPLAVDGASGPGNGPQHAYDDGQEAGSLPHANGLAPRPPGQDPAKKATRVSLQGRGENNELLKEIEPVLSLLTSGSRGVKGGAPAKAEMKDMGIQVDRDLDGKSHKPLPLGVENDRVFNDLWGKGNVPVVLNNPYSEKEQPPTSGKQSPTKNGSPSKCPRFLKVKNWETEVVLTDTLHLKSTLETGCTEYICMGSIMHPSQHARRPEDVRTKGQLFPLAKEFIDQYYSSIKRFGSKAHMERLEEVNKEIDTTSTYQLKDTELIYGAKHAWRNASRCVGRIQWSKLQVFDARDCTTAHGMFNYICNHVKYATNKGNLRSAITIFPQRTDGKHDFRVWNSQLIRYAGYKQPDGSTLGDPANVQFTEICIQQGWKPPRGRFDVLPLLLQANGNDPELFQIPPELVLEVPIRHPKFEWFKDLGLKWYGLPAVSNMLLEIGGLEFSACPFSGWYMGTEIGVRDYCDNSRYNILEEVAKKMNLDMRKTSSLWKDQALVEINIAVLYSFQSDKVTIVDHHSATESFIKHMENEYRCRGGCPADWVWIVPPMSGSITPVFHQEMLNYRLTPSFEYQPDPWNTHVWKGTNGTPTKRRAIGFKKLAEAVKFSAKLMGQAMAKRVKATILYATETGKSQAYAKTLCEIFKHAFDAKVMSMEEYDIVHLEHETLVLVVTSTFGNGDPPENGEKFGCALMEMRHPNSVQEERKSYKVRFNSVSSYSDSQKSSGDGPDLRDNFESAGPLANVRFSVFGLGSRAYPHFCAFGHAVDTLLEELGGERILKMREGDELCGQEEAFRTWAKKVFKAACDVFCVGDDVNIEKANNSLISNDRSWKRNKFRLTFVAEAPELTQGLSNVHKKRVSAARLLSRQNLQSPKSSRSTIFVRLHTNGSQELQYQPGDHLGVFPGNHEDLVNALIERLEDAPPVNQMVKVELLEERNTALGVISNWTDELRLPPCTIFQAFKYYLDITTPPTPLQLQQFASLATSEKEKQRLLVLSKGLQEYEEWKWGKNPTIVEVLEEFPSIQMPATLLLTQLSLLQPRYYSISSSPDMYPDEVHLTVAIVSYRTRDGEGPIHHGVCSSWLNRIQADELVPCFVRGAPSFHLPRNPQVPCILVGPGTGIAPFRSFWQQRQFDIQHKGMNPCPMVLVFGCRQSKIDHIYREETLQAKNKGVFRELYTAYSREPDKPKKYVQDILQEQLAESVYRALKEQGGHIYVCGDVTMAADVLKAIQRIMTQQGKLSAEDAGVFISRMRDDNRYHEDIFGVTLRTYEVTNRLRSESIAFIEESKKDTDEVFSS

In the case of `CN(C)CCC(=O)c1ccc(-c2ccc(Br)cc2)cc1` [4′-(4-bromophenyl)-3-dimethylaminopropiophenone hydrochloride], the “concentration-dependent inhibition of bNOS” value is reported as “up to 88%”.

In the case of `CN(C)CCCC(=O)c1ccc(-c2ccc(Br)cc2)cc1` [4′-(4-bromophenyl)-4-dimethylaminobutyrophenone hydrochloride], the “concentration-dependent inhibition of bNOS” value is reported as “up to 99%”.
